Experimental data published in the supplement of paper PMC10307832.

Experiments:
Experiment in all cases: relative viability (nuclei count vs DMSO), 5 days (fraction); higher = more cells survive
[1] = compound: CC1=C(CC(=O)O)c2cc(F)ccc2/C1=C\c1ccc([S+](C)[O-])cc1 [Sulindac] + C[C@]1(O)C[C@@H](c2nc(-c3ccc4ccc(-c5ccccc5)nc4c3)c3c(N)nccn32)C1 [Linsitinib] (partner 1 µM)
Method in brief: (§1)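 Lung cancer cell lines were seeded in 1536-well plates and dosed by pin tool the next day, with either a single drug or a fixed anchor-drug dose combined with five library-drug doses (not always all listed) spaced in √10 steps. Five days later, one step fixed the cells and stained their nuclei (final 0.05% Triton X-100, 1% formaldehyde, 1 ug/ml Hoechst), and nuclei were counted on 4× images. Relative viability is the nuclei count in treated wells divided by the count in vehicle wells, and each value is the median of duplicate plates.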

[2] = compound: CC1=C(CC(=O)O)c2cc(F)ccc2/C1=C\c1ccc([S+](C)[O-])cc1 [Sulindac] + Cc1nc(NC(=O)N2CCC[C@H]2C(N)=O)sc1-c1ccnc(C(C)(C)C(F)(F)F)c1 [Alpelisib] (partner 2 µM)
Method in brief: as §1

[3] = compound: CC1=C(CC(=O)O)c2cc(F)ccc2/C1=C\c1ccc([S+](C)[O-])cc1 [Sulindac] + O=C(c1cc(Cc2n[nH]c(=O)c3ccccc23)ccc1F)N1CCN(C(=O)C2CC2)CC1 [Olaparib] (partner 8 µM)
Method in brief: as §1

[4] = compound: CC1=C(CC(=O)O)c2cc(F)ccc2/C1=C\c1ccc([S+](C)[O-])cc1 [Sulindac] + C[C@@H](Oc1cc(-c2cnn(C3CCNCC3)c2)cnc1N)c1c(Cl)ccc(F)c1Cl [Crizotinib] (partner 1 µM)
Method in brief: as §1

| Cell Line | relative viability ([1]; first compound 0.08 µM) | relative viability ([1]; first compound 0.253 µM) | relative viability ([1]; first compound 0.8 µM) | relative viability ([1]; first compound 2.53 µM) | relative viability ([1]; first compound 8 µM) | relative viability ([2]; first compound 0.08 µM) | relative viability ([2]; first compound 0.253 µM) | relative viability ([2]; first compound 0.8 µM) | relative viability ([2]; first compound 2.53 µM) | relative viability ([2]; first compound 8 µM) | relative viability ([3]; first compound 0.08 µM) | relative viability ([3]; first compound 0.253 µM) | relative viability ([3]; first compound 0.8 µM) | relative viability ([3]; first compound 2.53 µM) | relative viability ([3]; first compound 8 µM) | relative viability ([4]; first compound 0.08 µM) | relative viability ([4]; first compound 0.253 µM) | relative viability ([4]; first compound 0.8 µM) | relative viability ([4]; first compound 2.53 µM) | relative viability ([4]; first compound 8 µM) |
| --- | --- | --- | --- | --- | --- | --- | --- | --- | --- | --- | --- | --- | --- | --- | --- | --- | --- | --- | --- | --- |
| 201T | 1.06 | 1.04 | 1.1 | 1.02 | 1.01 | 0.967 | 1.04 | 1.02 | 0.999 | 1.02 | 0.896 | 0.825 | 0.846 | 0.886 | 0.883 | 0.954 | 1.03 | 1.08 | 1.01 | 1.13 |
| A549 | 0.532 | 0.535 |  | 0.572 | 0.641 | 0.866 | 1.04 |  | 0.758 | 0.87 | 0.468 | 0.303 |  | 0.331 | 0.352 | 1.13 | 0.783 | 0.651 | 0.892 | 0.924 |
| A-427 | 1.1 | 1.14 | 1.11 | 1.14 | 1.11 | 1.03 | 1.08 | 0.534 | 1.09 | 1.11 | 0.74 | 0.787 | 0.8 | 0.742 | 0.821 | 0.892 | 0.888 | 0.881 | 0.894 | 0.896 |
| ABC-1 | 1.22 | 0.806 | 0.627 | 0.629 | 0.741 | 1.25 | 1.02 | 0.811 | 0.861 | 1 | 1.1 | 0.611 | 0.769 | 0.591 | 0.601 | 1.44 | 1.03 | 0.809 | 1.19 | 1.6 |
| BEN | 1.02 | 0.892 | 0.571 | 0.967 | 1.07 | 1.09 | 1.22 | 0.831 | 1 | 1.15 | 0.964 | 1.07 | 1 | 1.05 | 1.06 | 0.994 | 0.903 | 0.648 | 0.984 | 1.13 |
| CAL-12T | 0.787 | 0.858 | 0.593 | 0.795 | 0.705 |  | 1.37 | 0.999 | 1.31 | 1.54 | 0.794 | 0.727 | 0.649 | 0.664 | 0.769 | 0.689 | 0.661 | 0.563 | 0.629 | 0.797 |
| COR-L23 | 1.18 | 0.925 |  | 0.906 | 0.999 | 0.871 | 0.867 |  | 0.714 | 1.13 | 0.348 | 0.449 | 0.291 | 0.323 | 0.376 | 0.711 | 0.783 |  | 0.613 | 0.82 |
| COR-L 105 | 1.1 | 0.857 | 0.729 | 0.992 | 1.13 | 0.826 | 0.818 | 0.673 | 0.949 | 1.29 | 0.645 | 0.61 | 0.692 | 0.717 | 0.72 | 0.957 | 0.901 | 0.759 | 0.776 | 0.911 |
| Calu-6 | 1.29 | 1.07 | 0.738 | 1.03 | 1.11 | 1.06 | 1.09 | 0.774 | 1.08 | 1.23 | 0.618 | 0.624 | 0.449 | 0.531 | 0.711 | 0.951 | 0.883 | 0.637 | 0.853 | 0.969 |
| ChaGo-K-1 |  |  |  |  |  |  |  |  |  |  | 0.485 | 0.359 | 0.414 | 0.379 | 0.449 | 1.34 | 1.17 | 0.769 | 1.28 | 1.31 |
| EBC-1 | 0.937 | 1.16 | 0.509 | 1.04 | 0.989 | 0.993 | 0.944 | 0.848 | 0.79 | 0.887 | 0.846 | 0.643 | 0.545 | 0.748 | 0.816 | 0.188 | 0.196 |  | 0.178 | 0.201 |
| EKVX | 0.872 | 1 | 0.721 | 0.92 | 1.04 | 0.819 | 0.824 | 0.721 | 0.997 | 1.04 | 0.736 | 0.929 | 0.718 | 0.803 | 0.93 | 1.17 | 0.871 | 0.692 | 0.907 | 0.947 |
| EMC-BAC-2 | 0.894 | 0.882 | 0.726 | 0.809 | 0.835 | 0.854 | 0.791 | 0.637 | 0.767 | 0.87 | 0.493 | 0.488 | 0.476 | 0.46 | 0.566 | 0.788 | 0.778 | 0.585 | 0.779 | 0.91 |
| EPLC-272H | 1.04 |  | 0.751 | 1.17 | 1.15 | 0.759 |  | 0.618 | 0.985 | 1.03 | 0.828 | 0.852 | 0.72 | 0.639 | 0.727 | 0.932 |  | 0.948 | 0.551 | 0.977 |
| H3255 | 0.923 | 1.03 | 0.745 | 1.02 | 1.1 | 0.805 | 0.768 | 0.537 | 0.747 | 0.898 | 0.573 | 0.531 | 0.501 | 0.557 | 0.553 | 0.829 | 1.04 | 0.891 | 0.917 | 1.05 |
| HARA | 1.23 | 1.09 |  | 1.06 | 0.851 | 1.07 | 0.952 |  | 0.918 | 0.785 | 0.737 | 0.935 | 1 | 0.731 | 0.955 | 1.1 | 1.29 |  | 1.21 | 1.07 |
| HCC-15 | 0.966 | 0.868 | 0.739 | 0.913 | 0.921 | 0.989 | 0.957 | 0.813 | 0.828 | 0.968 | 0.747 | 0.763 | 0.68 | 0.702 | 0.765 | 0.952 | 0.934 | 0.647 | 0.834 | 0.883 |
